Test results as given in patent US20210261642A1, “SOLUBILITY OF GLP-1 PEPTIDE” (Novo Nordisk A/S, priority 2017, published 2021).

Experiment: Assay (I): Determination of Solubility (96-well plate, pH 3.0-11.0, organic solvent 0-70% w/w, UV absorption at 280 nm)
Type: physicochemical
Conditions: Method 1
Experimental: Assay (I): Determination of Solubility
96-Well Plate Preparation
96-well plates containing target peptide in a solid form were prepared in one of two ways:
Method 1 (evaporation): Addition of 100 μl stock solution of said peptide at a concentration of 4-6 mg/ml to each well of a 96-well half area plate (150 μl well size). Subsequently the solvent was evaporated by applying a vacuum until the solvent was completely removed.
Method 2 (precipitation): Addition of a certain volume of a stock solution of said peptide containing to each well of a 96-well half area plate followed by the addition of a certain volume of concentrated phosphoric acid to obtain a pH of 4.6 followed by addition of a certain volume of ethanol resulting in a final ethanol concentration of 20% v/v. Subsequently the plate was stored at 4° C. for 1 h and then centrifuged at 4,000 rpm for 20 min. Finally the supernatant was removed. The concentration of the stock solution was chosen in a way that the final amount of peptide after supernatant removal was >0.4 mg per well.
In both cases the stock solution was prepared by adding de-ionized water to a certain amount of powder of said peptide followed by a stepwise addition of small amounts of a concentrated sodium hydroxide solution until said peptide was completely in solution.
To determine solubility of a target peptide at different pH and organic solvent concentrations, two different buffer systems were used in independent experiments to cover the whole range from pH 3.0 to pH 11.0. Buffer system 1 covers pH 3.0-7.5 and buffer system 2 covers pH 7.5-11.0. For each buffer system 96 different solvent compositions were premixed in the following way: • 1. A low pH buffer (adjusted to either pH 3.0 or pH 7.5) and a high pH buffer (adjusted to either pH 7.5 or pH 11.0) were mixed at 8 different ratios to obtain values between pH 3.0 and pH 7.5 or pH 7.5 and pH 11.0, respectively. The total volume after mixing was 300 μl. • 2. 12 different amounts of organic solvent were then added to these buffers to obtain organic solvent (e.g. ethanol) concentrations between 0 and 70% w/w. • 3. Water was then added to obtain a total weight of 1.0 g of solvent in each well.
After preparing the 96 different solvent systems, 100 μl of each system was transferred to the 96-well plate containing the solid form of the target peptide (prepared as described in the section “96-well plate preparation”). The plate was then stored at a given temperature (between 5° C. and 70° C.) for a given time on a rotating shaker set to 400 rpm. At regular time intervals the plate was centrifuged (4,000 rpm for 10 min) and a 10 μl sample was taken from each well. The samples were then analysed by UV absorption at 280 nm for peptide quantification. Peptide concentration results are given as UV absorption at 280 nm of the sample subtracted UV absorption at 280 nm of a well comprising 10 μl water.
The buffers used were as follows: • Buffer system 1 (for the pH range from pH 3.0-7.5)
• Buffer system 2 (for the pH ranae from pH 7.5-11.0)
Solubility of liraglutide was determined using Assay (I) described herein. Liraglutide was prepared using Method 1 (evaporation) or Method 2 (precipitation) as described in subsection “96-well plate preparation”.

Peptide concentration after 180 min (MeCN 6.4% w/w, pH 3.6, 5° C.): 0.1 mg/mL | Peptide concentration after 24 h (MeCN 6.4% w/w, pH 3.6, 5° C.): 0.2 mg/mL | Peptide concentration after 24 h (MeCN 6.4% w/w, pH 3.6, RT): 0.1 mg/mL | Peptide concentration after 5 min (MeCN 6.4% w/w, pH 4.3, 5° C.): 0.1 mg/mL | Peptide concentration after 180 min (MeCN 6.4% w/w, pH 4.3, 5° C.): 0.1 mg/mL | Peptide concentration after 24 h (MeCN 6.4% w/w, pH 4.3, 5° C.): 0.2 mg/mL | Peptide concentration after 5 min (MeCN 6.4% w/w, pH 8.0, 5° C.): 0.8 mg/mL | Peptide concentration after 180 min (MeCN 6.4% w/w, pH 8.0, 5° C.): 2.2 mg/mL | Peptide concentration after 24 h (MeCN 6.4% w/w, pH 8.0, 5° C.): >4.0 mg/mL | Peptide concentration after 5 min (MeCN 6.4% w/w, pH 8.5, 5° C.): 0.8 mg/mL | Peptide concentration after 180 min (MeCN 6.4% w/w, pH 8.5, 5° C.): 2.6 mg/mL | Peptide concentration after 24 h (MeCN 6.4% w/w, pH 8.5, 5° C.): >4.0 mg/mL | Peptide concentration after 5 min (MeCN 6.4% w/w, pH 9.0, 5° C.): 1.0 mg/mL | Peptide concentration after 180 min (MeCN 6.4% w/w, pH 9.0, 5° C.): 2.9 mg/mL | Peptide concentration after 24 h (MeCN 6.4% w/w, pH 9.0, 5° C.): >4.0 mg/mL | Peptide concentration after 5 min (MeCN 6.4% w/w, pH 9.5, 5° C.): 0.6 mg/mL | Peptide concentration after 180 min (MeCN 6.4% w/w, pH 9.5, 5° C.): 2.5 mg/mL | Peptide concentration after 24 h (MeCN 6.4% w/w, pH 9.5, 5° C.): >4.0 mg/mL | Peptide concentration after 5 min (MeCN 6.4% w/w, pH 10.0, 5° C.): 1.0 mg/mL | Peptide concentration after 180 min (MeCN 6.4% w/w, pH 10.0, 5° C.): 3.1 mg/mL | Peptide concentration after 24 h (MeCN 6.4% w/w, pH 10.0, 5° C.): >4.0 mg/mL | Peptide concentration after 5 min (MeCN 6.4% w/w, pH 10.5, 5° C.): 0.7 mg/mL | Peptide concentration after 180 min (MeCN 6.4% w/w, pH 10.5, 5° C.): 2.6 mg/mL | Peptide concentration after 24 h (MeCN 6.4% w/w, pH 10.5, 5° C.): >4.0 mg/mL | Peptide concentration after 5 min (MeCN 6.4% w/w, pH 11.0, 5° C.): 0.7 mg/mL | Peptide concentration after 180 min (MeCN 6.4% w/w, pH 11.0, 5° C.): 1.7 mg/mL | Peptide concentration after 24 h (MeCN 6.4% w/w, pH 11.0, 5° C.): >4.0 mg/mL | Peptide concentration after 5 min (MeCN 12.7% w/w, pH 8.0, 5° C.): 1.3 mg/mL | Peptide concentration after 180 min (MeCN 12.7% w/w, pH 8.0, 5° C.): 2.2 mg/mL | Peptide concentration after 24 h (MeCN 12.7% w/w, pH 8.0, 5° C.): >4.0 mg/mL | Peptide concentration after 5 min (MeCN 12.7% w/w, pH 8.5, 5° C.): 0.8 mg/mL | Peptide concentration after 180 min (MeCN 12.7% w/w, pH 8.5, 5° C.): 2.1 mg/mL | Peptide concentration after 24 h (MeCN 12.7% w/w, pH 8.5, 5° C.): >4.0 mg/mL | Peptide concentration after 5 min (MeCN 12.7% w/w, pH 9.0, 5° C.): 0.8 mg/mL | Peptide concentration after 180 min (MeCN 12.7% w/w, pH 9.0, 5° C.): 1.8 mg/mL | Peptide concentration after 24 h (MeCN 12.7% w/w, pH 9.0, 5° C.): >4.0 mg/mL | Peptide concentration after 5 min (MeCN 12.7% w/w, pH 9.5, 5° C.): 0.9 mg/mL | Peptide concentration after 180 min (MeCN 12.7% w/w, pH 9.5, 5° C.): 1.9 mg/mL | Peptide concentration after 24 h (MeCN 12.7% w/w, pH 9.5, 5° C.): >4.0 mg/mL | Peptide concentration after 5 min (MeCN 12.7% w/w, pH 10.0, 5° C.): 0.8 mg/mL | Peptide concentration after 180 min (MeCN 12.7% w/w, pH 10.0, 5° C.): 2.3 mg/mL | Peptide concentration after 24 h (MeCN 12.7% w/w, pH 10.0, 5° C.): >4.0 mg/mL | Peptide concentration after 5 min (MeCN 12.7% w/w, pH 10.5, 5° C.): 1.1 mg/mL | Peptide concentration after 180 min (MeCN 12.7% w/w, pH 10.5, 5° C.): 2.1 mg/mL | Peptide concentration after 24 h (MeCN 12.7% w/w, pH 10.5, 5° C.): >4.0 mg/mL | Peptide concentration after 5 min (MeCN 12.7% w/w, pH 11.0, 5° C.): 0.6 mg/mL | Peptide concentration after 180 min (MeCN 12.7% w/w, pH 11.0, 5° C.): 1.5 mg/mL | Peptide concentration after 24 h (MeCN 12.7% w/w, pH 11.0, 5° C.): >4.0 mg/mL | Peptide concentration after 5 min (MeCN 19.1% w/w, pH 8.0, 5° C.): 1.0 mg/mL | Peptide concentration after 180 min (MeCN 19.1% w/w, pH 8.0, 5° C.): 2.7 mg/mL | Peptide concentration after 24 h (MeCN 19.1% w/w, pH 8.0, 5° C.): >4.0 mg/mL
Structure (SMILES): CCCCCCCCCCCCCCCC(=O)N[C@@H](CCC(=O)NCCCC[C@H](NC(=O)[C@H](C)NC(=O)[C@H](C)NC(=O)[C@H](CCC(N)=O)NC(=O)CNC(=O)[C@H](CCC(=O)O)NC(=O)[C@H](CC(C)C)NC(=O)[C@H](Cc1ccc(O)cc1)NC(=O)[C@H](CO)NC(=O)[C@H](CO)NC(=O)[C@@H](NC(=O)[C@H](CC(=O)O)NC(=O)[C@H](CO)NC(=O)[C@@H](NC(=O)[C@H](Cc1ccccc1)NC(=O)[C@@H](NC(=O)CNC(=O)[C@H](CCC(=O)O)NC(=O)[C@H](C)NC(=O)[C@@H](N)Cc1cnc[nH]1)[C@@H](C)O)[C@@H](C)O)C(C)C)C(=O)N[C@@H](CCC(=O)O)C(=O)N[C@@H](Cc1ccccc1)C(=O)N[C@H](C(=O)N[C@@H](C)C(=O)N[C@@H](Cc1c[nH]c2ccccc12)C(=O)N[C@@H](CC(C)C)C(=O)N[C@H](C(=O)N[C@@H](CCCNC(=N)N)C(=O)NCC(=O)N[C@@H](CCCNC(=N)N)C(=O)NCC(=O)O)C(C)C)[C@@H](C)CC)C(=O)O [liraglutide, Arg34,Lys26-(N-epsilon-(gamma-L-glutamyl(N-alfa-hexadecanoyl)))-GLP-1(7-37)]
